Test results as given in patent US20220395472A1 (Dermavant Sciences GmbH, priority 2021, published 2022).

System: adults with plaque psoriasis
Assay: Long-term open-label extension study (PSOARING 3): Physician Global Assessment (PGA), treatment episodes, treatment success, remittive effect
Type: in vivo, human
Experimental: This extension study consisted of up to 40 weeks of treatment and a 4 week, safety follow up period.
At the completion of the Week 12 visit of the DB, pivotal Phase 3 study, eligibility of the subjects opting to enroll in this extension study was confirmed. Study visits during the treatment period for all subjects occurred every 4 weeks (±3 days). A phone call was performed at Week 2 (Day 15). Unscheduled visits may have occurred, as needed. Subjects who withdrew from this study before Week 40 returned to the study center for an Early Termination visit. The total duration of this extension study participation was 44 weeks. Subjects in this study were treated as follows based on their PGA score from the Week 12 visit in the DB, pivotal Phase 3 study (Study DMVT 505 3001 or Study DMVT 505 3002).
The PGA was used to assess the primary efficacy endpoint in this study. The PGA is a clinical tool for assessing the current state/severity of a subject's psoriasis at a given time point. It is a static, 5 point, morphological assessment of overall disease severity, as determined by the Investigator, using the clinical characteristics of erythema, scaling, and plaque thickness/elevation as guidelines; higher PGA scores represent more severe disease (0=clear, 1=almost clear, 2=mild, 3=moderate, and 4=severe). The BSA affected was not considered in scoring of the PGA. Variations of the PGA are frequently used in clinical studies because it is a simple assessment, similar to those used in clinical practice. The PGA was performed first, prior to the % BSA, PASI, and LTS assessments.
Time to event parameters, such as the time from treatment success to subsequent worsening (PGA≥2) or duration of treatment episode, were summarized by the Kaplan Meier product limit method using OC.

[1] = Baseline PGA = 2, Tapinarof (Pivotal) group
[2] = Baseline PGA = 2, Vehicle (Pivotal) group
[3] = Baseline PGA = 3, Tapinarof (Pivotal) group

CC(C)c1c(O)cc(/C=C/c2ccccc2)cc1O [Tapinarof, 3,5-Dihydroxy-4-isopropyl-trans-stilbene]
Duration of 1st Success, Mean (SD) [1]: 81.3 (71.03) days | Duration of 1st Success, Median [1]: 57.0 days | Duration of 2nd Episode, Mean (SD) [1]: 78.2 (54.89) days | Duration of 2nd Episode, Median [1]: 84.5 days | Duration of 2nd Success, Mean (SD) [1]: 27.3 (30.06) days | Duration of 2nd Success, Median [1]: 25.0 days | Duration of 3rd Episode, Mean (SD) [1]: 1.0 (NE) days | Duration of 3rd Episode, Median [1]: 1.0 days | Duration of Last Episode, Mean (SD) [1]: 175.4 (98.91) days | Duration of Last Episode, Median [1]: 197.0 days | Duration of Last Success, Mean (SD) [1]: 76.1 (72.82) days | Duration of Last Success, Median [1]: 56.0 days | Total Duration of Treatment Episodes, Mean (SD) [1]: 190.1 (90.58) days | Total Duration of Treatment Episodes, Median [1]: 223.0 days | Total Duration of Treatment Success, Mean (SD) [1]: 84.6 (71.17) days | Total Duration of Treatment Success, Median [1]: 78.0 days | Average Duration of Episodes, Mean (SD) [2]: 169.8 (89.68) days | Average Duration of Episodes, Median [2]: 194.0 days | Average Duration of Treatment Success, Mean (SD) [2]: 94.6 (65.57) days | Average Duration of Treatment Success, Median [2]: 87.0 days | Duration of 1st Episode, Mean (SD) [2]: 173.2 (86.28) days | Duration of 1st Episode, Median [2]: 194.0 days | Duration of 1st Success, Mean (SD) [2]: 110.8 (72.69) days | Duration of 1st Success, Median [2]: 115.5 days | Duration of 2nd Episode, Mean (SD) [2]: 46.0 (42.39) days | Duration of 2nd Episode, Median [2]: 27.0 days | Duration of 2nd Success, Mean (SD) [2]: 34.7 (51.14) days | Duration of 2nd Success, Median [2]: 27.5 days | Duration of 3rd Episode, Mean (SD) [2]: 42.5 (19.09) days | Duration of 3rd Episode, Median [2]: 42.5 days | Duration of 3rd Success, Mean (SD) [2]: 29.0 (NE) days | Duration of 3rd Success, Median [2]: 29.0 days | Duration of Last Episode, Mean (SD) [2]: 166.2 (95.09) days | Duration of Last Episode, Median [2]: 194.0 days | Duration of Last Success, Mean (SD) [2]: 79.8 (77.74) days | Duration of Last Success, Median [2]: 44.5 days | Total Duration of Treatment Episodes, Mean (SD) [2]: 184.6 (78.19) days | Total Duration of Treatment Episodes, Median [2]: 196.5 days | Total Duration of Treatment Success, Mean (SD) [2]: 127.9 (73.01) days | Total Duration of Treatment Success, Median [2]: 136.5 days | Average Duration of Episodes, Mean (SD) (Baseline PGA = 3, Overall): 178.0 (94.87) days | Average Duration of Episodes, Median (Baseline PGA = 3, Overall): 197.0 days | Average Duration of Treatment Success, Mean (SD) (Baseline PGA = 3, Overall): 66.4 (56.88) days | Average Duration of Treatment Success, Median (Baseline PGA = 3, Overall): 51.0 days | Duration of 1st Episode, Median (Baseline PGA = 3, Overall): 197.0 days | Duration of 1st Success, Mean (SD) (Baseline PGA = 3, Overall): 68.8 (57.40) days | Duration of 1st Success, Median (Baseline PGA = 3, Overall): 56.0 days | Duration of 2nd Episode, Mean (SD) (Baseline PGA = 3, Overall): 58.8 (46.15) days | Duration of 2nd Episode, Median (Baseline PGA = 3, Overall): 55.0 days | Duration of 2nd Success, Mean (SD) (Baseline PGA = 3, Overall): 31.5 (19.15) days | Duration of 2nd Success, Median (Baseline PGA = 3, Overall): 28.5 days | Duration of 3rd Episode, Mean (SD) (Baseline PGA = 3, Overall): 55.2 (27.44) days | Duration of 3rd Episode, Median (Baseline PGA = 3, Overall): 57.0 days | Duration of 3rd Success, Mean (SD) (Baseline PGA = 3, Overall): 28.0 (NE) days | Duration of 3rd Success, Median (Baseline PGA = 3, Overall): 28.0 days | Duration of 4th Episode, Mean (SD) (Baseline PGA = 3, Overall): 1.0 (NE) days | Duration of 4th Episode, Median (Baseline PGA = 3, Overall): 1.0 days | Duration of Last Episode, Mean (SD) (Baseline PGA = 3, Overall): 175.4 (98.29) days | Duration of Last Episode, Median (Baseline PGA = 3, Overall): 197.0 days | Duration of Last Success, Mean (SD) (Baseline PGA = 3, Overall): 64.1 (58.23) days | Duration of Last Success, Median (Baseline PGA = 3, Overall): 51.0 days | Total Duration of Treatment Episodes, Mean (SD) (Baseline PGA = 3, Overall): 187.9 (90.62) days | Total Duration of Treatment Episodes, Median (Baseline PGA = 3, Overall): 198.0 days | Total Duration of Treatment Success, Mean (SD) (Baseline PGA = 3, Overall): 75.5 (57.18) days | Total Duration of Treatment Success, Median (Baseline PGA = 3, Overall): 64.0 days | Average Duration of Episodes, Mean (SD) [3]: 184.7 (96.36) days | Average Duration of Episodes, Median [3]: 198.0 days | Average Duration of Treatment Success, Mean (SD) [3]: 63.9 (54.43) days | Average Duration of Treatment Success, Median [3]: 48.3 days | Duration of 1st Episode, Mean (SD) [3]: 187.1 (95.90) days | Duration of 1st Episode, Median [3]: 198.0 days | Duration of 1st Success, Mean (SD) [3]: 62.6 (55.19) days | Duration of 1st Success, Median [3]: 43.0 days | Duration of 2nd Episode, Mean (SD) [3]: 68.2 (77.66) days | Duration of 2nd Episode, Median [3]: 30.0 days | Duration of 2nd Success, Mean (SD) [3]: 57.0 (NE) days | Duration of 2nd Success, Median [3]: 57.0 days | Duration of Last Episode, Mean (SD) [3]: 182.2 (99.93) days | Duration of Last Episode, Median [3]: 198.0 days | Duration of Last Success, Mean (SD) [3]: 65.2 (54.03) days | Duration of Last Success, Median [3]: 56.0 days | Total Duration of Treatment Episodes, Mean (SD) [3]: 190.8 (95.50) days | Total Duration of Treatment Episodes, Median [3]: 200.0 days
